According to a melting point compilation (Tetko et al.; mined from patent text by program, amines drawn as free bases though some values may be those of a salt):

Row | Structure (SMILES) | melting point [°C]
1 | COC1C(O)C(CO)OC1n1cnc2c(NC3CC=CCC3c3cccs3)ncnc21 (centres undefined) | 86 to 89
2 | O=C(Oc1ccc(Cl)cn1)c1cc2cc([N+](=O)[O-])ccc2oc1=O | 287 to 289
3 | CCOC(=O)CN1C(=O)c2cccc3c(Cl)ccc1c23 | 138 to 140
4 | NS(=O)(=O)c1cccc(-c2noc(-c3cnn4c(C(F)F)cc(-c5ccc(Cl)cc5)nc34)n2)c1 | 231
5 | O=CN1CCN(c2ccnc(Oc3ccccc3)n2)CC1 | 149 to 151
6 | CC(C)C(OCc1ccccc1)[C@H]1[C@H]([N+](=O)[O-])[C@H](c2cccnc2)N[C@@H]1C(=O)NCCC(=O)O (some centres undefined) | 98 to 100
7 | O=C(COc1ccc2ccccc2c1)Nc1ccc(C(=O)C(=O)O)cc1 | 215 to 216
8 | C=C(F)C(=O)Oc1c(Br)cc(C#N)cc1Br | 135 to 138
9 | N#Cc1ccc(N(Cc2ccc(Br)cc2)n2cnnc2)cc1-c1ccc(OS(N)(=O)=O)cc1 | 122 to 123
10 | Cc1cc(N)ncc1I | 198 to 200
11 | Cc1cc(F)ccc1C(=C(C=CC(O)CC(=O)CC(=O)OC(C)(C)C)c1nnnn1C)c1ccc(F)cc1C (centres undefined) | 65 to 72
12 | CCc1c2c(nc3ccccc13)-c1cc3c(c(=O)n1C2)COC(=O)CC3(O)CC (centres undefined) | > 280
13 | COC(=O)c1ccc2c(c1)C(c1ccccn1)=CC(C)(C)O2 | 94 to 95
14 | OC(c1cc(Cl)cc(Cl)c1)c1cc(Cl)cc(Cl)c1 | 126
15 | COc1ccccc1Oc1c(NS(=O)(=O)c2ccc(C)cn2)nc(-c2cccc(O)c2)nc1OC | 211 to 216
16 | COc1cccc(Cc2snnc2-c2ccco2)c1 | 80.6 to 82
17 | Nc1cc(C(=O)Nc2ccccc2)ccc1F | 167 to 170
18 | CSc1ncc(S(N)(=O)=O)c(Nc2cccc(C)c2)n1 | 184
19 | OCCSSc1nc2ccccc2s1 | 65 to 68
20 | O=CC1CCN1C(c1ccccc1)c1ccccc1 (centres undefined) | 85 to 86
21 | C(=Cc1ccccc1)CN1CCN(C2c3ccccc3Sc3ccccc32)CC1 | 115 to 117
22 | CCOC(=O)C(=O)C1C(=O)c2c(OC)ccc3c2C1CCO3 (centres undefined) | 104 to 106
23 | CCCCc1oc2ccccc2c1C(=O)c1ccc(NS(=O)(=O)c2cccnc2)cc1 | 130
24 | O=C(O)CCNC(=O)[C@H](Cc1ccccc1)OP(=O)(O)CCCCc1ccccc1 | 78.5 to 80
25 | CCOC(=O)C1=CC(C(=O)c2cc(Cl)ccc2O)=CN2CCc3c([nH]c4ccccc34)C12C(=O)OCC (centres undefined) | 216

Row | Structure (SMILES) | melting point [°C]
26 | COc1ccc(N(C)CC(=O)O)c(C(=O)O)c1 | 196
27 | C1=C(c2nc(COc3ccc(CCCCn4cncn4)cc3)co2)CCc2ccccc21 | 96 to 97
28 | CCCCCCCCCCCCOC(=O)CCC(=O)c1ccc(NCc2ccc3ccc4nc(C)[nH]c(=O)c4c3c2)cc1 | 213 to 214
29 | O=C(O)c1c[nH]c2cc(Cl)c([N+](=O)[O-])cc2c1=O | 294 to 297
30 | O=Cc1ccc(-c2ccc(-c3ccccc3)s2)s1 | 119 to 121
31 | O=C(O)C1CCc2ccc3[nH]ccc3c21 (centres undefined) | 166 to 167
32 | Cc1nc(-c2ccc(-c3cnc4[nH]c(=O)n(CCN5CCCC5=O)c4n3)cc2)n[nH]1 | 315 to 316
33 | C=C(C)[C@@H]1CC[C@](C)(O)[C@@H](n2ccnc2)C1 | 126 to 128
34 | CN(Cc1ccccc1)C(=O)Nc1ccc(CN2C(=O)C3CCCC3N(C(=O)CN3C(=O)c4ccccc4C3=O)c3ccccc32)cc1 (centres undefined) | 156 to 158
35 | COC(=O)c1ccc(OC2=C3N=C4CCCCC4=C3C(Cc3ccc(C)cc3)C=C2)o1 (centres undefined) | 80 to 81
36 | CC1(C)C=Cc2cc(OCc3ccccc3)c(OCc3ccccc3)cc2O1 | 50 to 51
37 | O=C(O)C(O)c1cccc(COc2ccccc2Cl)c1COc1ccccc1Cl (centres undefined) | 101 to 103
38 | Clc1nccnc1SN=Cc1ccccc1 | 93 to 94
39 | COc1ccc(CC(=O)NCCc2cccc(OC)c2OC)cc1OC | 80
40 | CC(C)n1c(/C=C/[C@H]2C[C@H](CC(=O)OC(C)(C)C)OC(C)(C)O2)c(-c2ccc(F)cc2)c(-c2ccccc2)c1C(N)=O | 73 to 75
41 | CC(=O)N1CCC(C(=O)Nc2ccccc2Oc2ccc(Cl)cc2Cl)CC1 | 194 to 196
42 | COC(=O)Cn1c(C(=O)Nc2nc(-c3cc(OC)c(Cl)cc3OC)c(CC3CCCCC3)s2)cc2cc(C)cc(C)c21 | 143 to 145
43 | CCCCCc1ccc(Oc2cccc(C=C3SC(=S)NC3=O)c2)cc1 | 125 to 127
44 | COC(=O)CCCCCCCCCCNC(=O)C(CSC(C)=O)Cc1ccccc1 (centres undefined) | 64 to 66
45 | CCC1c2c(ncn2CC)CCN1C(=S)NC(C)C (centres undefined) | 195
46 | COc1ccc(S(=O)(=O)NCCCCCCCC(=O)O)cc1 | 102 to 103
47 | COc1ccc(-c2cc(=O)c3c(O)cc(O)c(-c4cc(-c5cc(=O)c6c(O)cc(OC)cc6o5)ccc4OC)c3o2)cc1 | 295 to 298
48 | COc1cc(OCCN2CCOCC2)c(C=O)cc1-c1cccs1 | 130 to 131
49 | Oc1nc(-c2cccnc2)sc1-c1ccccc1 | 273 to 276
